Reference: patent US20030079241A1, “Premalignant, serially-transplantable breast tissue lines and uses thereof” (priority 2001, published 2003)

System: HPO line A
Assay: Effect of tamoxifen on tumor development in mice with bilateral implants of HPO line A
Type: in vivo
Details: mice receiving bilateral implants of HPO line A; after 15 weeks; all control vehicle mice developed bilateral tumors
Protocol: The instant invention also provides a method of using the above described premalignant serially-transplantable, hyperplastic outgrowth (HPO) breast tissue lines to screen for new chemopreventative agents against breast cancer. The serially-transplantable breast tissue lines are implanted into the inguinal mammary fat pads of syngeneic, non-transgenic recipient mice. Putative chemopreventative agents are administered to a subset of the implanted mice.
Breast tissue lines A, B, C, D, and E from zone 4 all express high levels of estrogen receptor, which is also expressed in human premalignant breast cells. This is important for testing chemopreventive agents that rely on this receptor. Moreover, the effects of tamoxifen on the development of tumors in mice receiving bilateral implants of HPO line A were examined.

CC/C(=C(\c1ccccc1)c1ccc(OCCN(C)C)cc1)c1ccccc1 [tamoxifen]
development of tumors: None of the mice receiving tamoxifen developed tumors after 15 weeks
